Assay results: paper PMC4122355, “Inhibitor of the Tyrosine Phosphatase STEP Reverses Cognitive Deficits in a Mouse Model of Alzheimer's Disease” (PLoS Biology, 2014)
Read-outs that look alike come from different tables or passages of the source.

Columns and labels:
[1] = test system: GluN2B Y1472, Pyk2 Y402, ERK1/2 Y204/187 in WT and STEP KO cortical neurons; assay: Tyr phosphorylation of STEP substrates in WT and STEP KO mouse cortical cultures; format: cell-based; details: STEP KO cultures, 1 h; TC-2153 0.1 and 1 µM, Na3VO4 1 mM
Procedure: (§1) Primary cortical neurons were isolated from Sprague Dawley rat embryos (E18) (Charles River Laboratories, Wilmington, MA) as previously described. In some experiments, cortical neurons were made from WT and STEP KO mouse embryos (E18). Neurons were allowed to grow for 18–21 d in CO2 incubator before addition of compounds at indicated doses for 1 h. Immediately following treatments, neurons were lysed in RadioImmuno Precipitation Assay (RIPA) buffer supplied with protease inhibitor cocktail (Roche Applied Science, Indianapolis, IN) and phosphatase inhibitors (NaF and Na3VO4). All experiments were replicated four times with four independent batches of cultures.
(§2) Samples were prepared and resolved by SDS-PAGE, transferred to nitrocellulose membrane, and incubated with phospho-specific antibodies (anti-pY^204/187 ERK1/2, anti-pY^402 Pyk2, anti-pY^1472 GluN2B) or total protein antibodies (anti-ERK2, anti-Pyk2, and anti-NR2B) overnight at 4°C. Immunoreactivity was visualized using a Chemiluminescent substrate kit (Pierce Biotechnology, Rockford, IL) and detected using a G:BOX with the image program GeneSnap (Syngene, Cambridge, UK). All densitometric quantifications were performed using the Genetools program.

[2] = cited from earlier work
[3] = test system: GluN2B (Y1472), Pyk2 (Y402), ERK1/2 (Y204/187) in cortex; assay: Tyr phosphorylation of STEP substrates in cortex of WT mice after i.p. injection; format: in vivo, mouse; details: C57BL/6 mice, 1 mg/kg i.p., 3 h postinjection, relative to vehicle
Procedure: Wild-type, male C57BL/6 mice (3–6 mo) were used for all studies. […] Cortical tissues were dissected out 3 h postinjection and processed for subcellular fractionation. […] Homogenates were centrifuged at 800 × g to remove nuclei and large debris (P1). Synaptosomal fractions (P2) were prepared from S1 by centrifugation at 9,200 × g for 15 min. The P2 pellet was washed twice and was resuspended in TEVP buffer. […] Samples were prepared and resolved by SDS-PAGE, transferred to nitrocellulose membrane, and incubated with phospho-specific antibodies (anti-pY^204/187 ERK1/2, anti-pY^402 Pyk2, anti-pY^1472 GluN2B) or total protein antibodies (anti-ERK2, anti-Pyk2, and anti-NR2B) overnight at 4°C. Immunoreactivity was visualized using a Chemiluminescent substrate kit (Pierce Biotechnology, Rockford, IL) and detected using a G:BOX with the image program GeneSnap (Syngene, Cambridge, UK). All densitometric quantifications were performed using the Genetools program.

[4] = test system: GluN2B (Y1472), Pyk2 (Y402), ERK1/2 (Y204/187) in cortical neurons; assay: Tyr phosphorylation of STEP substrates in cortical neuronal cultures (Western blot); format: cell-based, rat; details: 1 µM dose, 1 h, relative to vehicle
Procedure: as §1, §2

SMILES: [Na+].[Na+].[Na+].[O]=[V]([O-])([O-])[O-] [sodium orthovanadate, reference compound]
- Tyr phosphorylation of STEP substrates in STEP KO cortical cultures [1]: further increased the Tyr phosphorylation of these substrates

SMILES: COc1cc(CCN)c2c(c1OC)SSSSS2 [varacin, reference compound]
- Solubility in aqueous solution [2]: reasonable solubility in aqueous solution

SMILES: S1SSSSSSS1 [Compound S8, sulfur (S8)]
- Solubility in aqueous solution ([2]; stated without reference): poorly soluble
- pERK1/2 in cortex (P2 fraction) [3]: 1.57±0.13
- pGluN2B in cortex (P2 fraction) [3]: 1.31±0.11
- pPyk2 in cortex (P2 fraction) [3]: 1.46±0.14
- pERK1/2 (Y204/187), phospho-signal normalized to total protein and GAPDH [4]: 1.67±0.14
- pGluN2B (Y1472), phospho-signal normalized to total protein and GAPDH [4]: 1.33±0.08
- pPyk2 (Y402), phospho-signal normalized to total protein and GAPDH [4]: 1.49±0.12
